Reference: BindingDB's records for doi:10.7270/Q25B012X (Burnham Center For Chemical Genomics, 2012)

biological target: Protein Wnt-3a (Mus musculus, UniProt P27467)
Sequence (P27467 whole entry): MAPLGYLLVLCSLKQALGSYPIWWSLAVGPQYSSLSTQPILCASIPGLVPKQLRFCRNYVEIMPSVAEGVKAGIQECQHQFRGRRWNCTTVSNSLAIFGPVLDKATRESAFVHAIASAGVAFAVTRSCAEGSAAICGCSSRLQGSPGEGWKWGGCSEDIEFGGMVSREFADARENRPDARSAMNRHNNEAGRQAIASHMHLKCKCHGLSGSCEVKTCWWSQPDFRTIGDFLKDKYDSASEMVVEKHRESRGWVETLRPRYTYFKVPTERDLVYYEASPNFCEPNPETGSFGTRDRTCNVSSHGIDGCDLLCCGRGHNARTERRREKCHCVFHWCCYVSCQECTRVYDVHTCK

IC50	SMILES
> 50 µM	CC(C)(C)c1ccc(C(=O)NC(=S)Nc2ccc(N3CCOCC3)cc2)cc1
> 50 µM	O=C(NC1CCCC1)c1cc(COc2ccc3ncccc3c2)on1
> 50 µM	CCN1C(=O)CCN(C2CCCC2)c2nc(Nc3ccc(C(=O)NC4CCN(C)CC4)cc3OC)ncc21
> 50 µM	Cc1ccc(-c2csc(NC(=O)c3c(C)noc3C)n2)s1
> 50 µM	COc1cccc2nc3c(C(=O)NCCN(C)C)cccc3cc12
29.2 µM	C=CCN1C(=O)C(=NNC(=S)Nc2cccc(C)c2)c2ccccc21 [1-(3-methylphenyl)-3-[(Z)-(2-oxidanylidene-1-prop-2-enyl-indol-3-ylidene)amino]thiourea]
> 50 µM	Cc1cccc(C)c1N=C(S)N(CCN1CCCCCC1)Cc1ccco1 [1-[2-(1-azepanyl)ethyl]-3-(2,6-dimethylphenyl)-1-(2-furanylmethyl)thiourea]
> 50 µM	O=C(C[n+]1cc(-c2ccccc2)n2c1CCCCC2)c1ccc(Cl)cc1 [1-[2-(4-Chloro-phenyl)-2-oxo-ethyl]-3-phenyl-6,7,8,9-tetrahydro-5H-imidazo[1,2-a]azepin-1-ium]
> 50 µM	CC(=O)N1c2ccc(S(=O)(=O)N3CCC(C(=O)N4CCCCC4)CC3)cc2CC1C (configuration not stated) [1-[2-methyl-5-(4-piperidin-1-ylcarbonylpiperidin-1-yl)sulfonyl-2,3-dihydroindol-1-yl]ethanone]
> 12.5 µM	Brc1ccc(-c2csc(N3CCCCCC3)n2)cc1 [1-[4-(4-bromophenyl)-1,3-thiazol-2-yl]azepane]
> 50 µM	CCCCn1c(SCc2c(C)noc2C)nc2cc(S(N)(=O)=O)ccc21 [1-butyl-2-[(3,5-dimethyl-1,2-oxazol-4-yl)methylsulfanyl]benzimidazole-5-sulfonamide]
> 50 µM	Cc1ccc(O)c(NC(=O)COc2cc(C)ccc2C)c1 [2-(2,5-dimethylphenoxy)-N-(2-hydroxy-5-methylphenyl)acetamide]
> 50 µM	Cc1ccc(C2=C(CC(=O)O)C(=O)CC2)cc1 [2-[2-(4-methylphenyl)-5-oxidanylidene-cyclopenten-1-yl]ethanoic acid]
> 50 µM	COc1ccc(-c2c[n+](CC(=O)c3ccccc3)c3n2CCCCC3)cc1 [2-[3-(4-methoxyphenyl)-6,7,8,9-tetrahydro-5H-imidazo[1,2-a]azepin-1-ium-1-yl]-1-phenyl-ethanone;bromide]
> 50 µM	COc1cc(C(=O)NC2CCN(C)CC2)ccc1Nc1ncc2c(n1)N(Cc1ccccc1)CCC(=O)N2C [3-methoxy-4-[[5-methyl-6-oxo-9-(phenylmethyl)-7,8-dihydropyrimido[4,5-b][1,4]diazepin-2-yl]amino]-N-(1-methyl-4-piperidinyl)benzamide]
> 50 µM	CC(C)(C)OC(=O)N1CCC(c2cc(-c3cccs3)n[nH]2)CC1 [4-(3-thiophen-2-yl-1H-pyrazol-5-yl)-1-piperidinecarboxylic acid tert-butyl ester]
> 50 µM	Cc1nc2sccn2c1-c1csc(NCc2ccccc2)n1 [4-(6-methyl-5-imidazo[2,1-b]thiazolyl)-N-(phenylmethyl)-2-thiazolamine]
> 50 µM	O=C(Nc1ccncc1)c1ccc(-c2ccccc2)cc1 [4-phenyl-N-(4-pyridyl)benzamide]
> 50 µM	CCc1cc(C(=O)NC2CCCN(Cc3ccccc3F)C2)n(C)n1 (configuration not stated) [5-ethyl-N-[1-[(2-fluorophenyl)methyl]piperidin-3-yl]-2-methyl-pyrazole-3-carboxamide]
7.28 µM	O=C1NC(=Cc2ccc(O)cc2)C(=O)C1=CNCc1ccccc1 [(3Z,5Z)-3-[(benzylamino)methylidene]-5-[(4-hydroxyphenyl)methylidene]pyrrolidine-2,4-dione]
> 50 µM	Cc1nc2ccccc2c2oc(C(=O)N3CCN(C4CCCCC4)CC3)cc12 [(4-cyclohexylpiperazin-1-yl)-(4-methylfuro[3,2-c]quinolin-2-yl)methanone]

IC50	SMILES
41.3 µM	Cc1cc(N=NCc2ccc(O)cc2O)nc(-n2nc(C)cc2C)n1 [(4E)-4-[[2-[2-(3,5-dimethylpyrazol-1-yl)-6-methyl-pyrimidin-4-yl]hydrazinyl]methylidene]-3-oxidanyl-cyclohexa-2,5-dien-1-one]
11.2 µM	CCOc1ccc(-n2c(O)c(CN=Nc3nc(C)cc(C)n3)c3ccccc3c2=O)cc1 [(4Z)-4-[[(4,6-dimethyl-2-pyrimidinyl)hydrazo]methylidene]-2-(4-ethoxyphenyl)isoquinoline-1,3-dione]
> 50 µM	COCCNC(=O)CSCc1nc(-c2ccc(SC)cc2)oc1C [MLS000089367]
> 50 µM	CCn1c(=O)cc(SCC(=O)N2CCN(C3CCCCC3)CC2)c2ccccc21 [MLS000092496]
> 50 µM	CCCN(CCC)CCNC(=O)c1cc2c(=O)n(C)c3ccccc3c2n1C [MLS000118109]
> 12.5 µM	O=C(Nc1cc2c3c(c1)C1CCCC1CN3CC1CCCC21)c1ccc([N+](=O)[O-])cc1 (configuration not stated) [MLS000324904]
> 50 µM	C[N+]1=C(CC=Nc2ccccc2)C(C)(C)c2ccccc21 [MLS000390698]
> 50 µM	CC1=CC(C)C2(COC(c3ccc[n+](C)c3)OC2)C(C)C1 (configuration not stated) [MLS000717774]
> 50 µM	CC(=O)c1ccc(-[n+]2cc(-c3ccc(C(C)(C)C)cc3)n3c2SCCC3)cc1 [MLS001018012]
> 50 µM	COc1ccc(C(=O)C[n+]2cc(-c3ccc(OC)cc3)n3c2CCCC3)cc1 [MLS001018126]
> 50 µM	Clc1ccc(-[n+]2cc(-c3ccc(Br)cc3)n3c2CCCCC3)cc1 [MLS001029582]
> 50 µM	CC(NC(=O)c1cc2c(=O)n3ccccc3nc2n(CC2CCCO2)c1=N)c1ccccc1 (configuration not stated) [MLS001217747]
> 50 µM	CC(N=Nc1ccc(Cl)nn1)c1ccccc1O (configuration not stated) [MLS001233678]
21.7 µM	COc1ccc(CN(C)C(=O)c2cccc(NC(=O)Cc3sc(N4CCCCC4)nc3O)c2)c(OC)c1 [MLS002180955]
> 50 µM	COc1cc(C(=O)NC2CCN(C)CC2)ccc1Nc1ncc2c(n1)N(CCc1ccccc1)CCC(=O)N2C [MLS002232307]
> 12.5 µM	CC(C)(C)[C@H]1COC(=O)[C@H](NC(=O)OCC2c3ccccc3-c3ccccc32)C/C=C\C[C@@H](CC(=O)N(CCO)Cc2ccccc2)C(=O)N1 [MLS002320431]
> 50 µM	O=c1c2ccccc2sc2c(CO)ccc(NCCN3CCCCC3)c12 [MLS002702047]
> 50 µM	CN(C)CCn1c2ccccc2c2nc3ccc([N+](=O)[O-])cc3cc21 [N,N-dimethyl-2-(2-nitro-10-indolo[3,2-b]quinolinyl)ethanamine]
> 50 µM	CC(C)C(=O)N1CCN(c2ccccc2NC(=O)COc2ccccc2)CC1 [N-[2-[4-(2-methyl-1-oxopropyl)-1-piperazinyl]phenyl]-2-phenoxyacetamide]
> 50 µM	O=C(Nc1cc(N2CCCCC2)ncn1)c1ccccc1 [N-[6-(1-piperidinyl)-4-pyrimidinyl]benzamide]
7.29 µM	CCn1c(CC=Nc2ccccc2)[n+](CC)c2cc(Cl)c(Cl)cc21 [N-[(E)-2-[5,6-bis(chloranyl)-1,3-diethyl-benzimidazol-3-ium-2-yl]ethenyl]aniline;iodide]

IC50	SMILES
> 50 µM	CCC(=O)c1ccc(OCC(O)Cn2c(C)nc3ccccc32)cc1 (configuration not stated) [SMR000075355]
26.3 µM	CCn1c(CC=Nc2ccccc2)[n+](CC)c2ccc(Cl)cc21 [SMR000173759]
> 50 µM	C[n+]1c2n(c3ccccc31)N=C(c1ccccc1)CS2 [SMR000176360]
> 50 µM	CCCCCCCNC1=CC(=O)CC(c2ccccc2)C1 (configuration not stated) [SMR000203844]
13.3 µM	CCc1ccccc1NC(=S)NN=C1C(=O)N(C)c2ccc(S(=O)(=O)N3CCOCC3)cc21 [SMR000207996]
> 50 µM	CC(=O)c1c(C)[nH]c(C(=O)OCC(=O)Nc2sc3c(c2C#N)CCCC3)c1C [SMR000249195]
> 50 µM	CC(C)(C)C1CCC(OC(=O)C[N+]2(C)CCCCC2)CC1 (configuration not stated) [SMR000306329]
> 50 µM	O=C(Cc1csc(Nc2[nH]c(=S)nc3ccccc23)n1)NCCCN1CCN(c2ccccc2F)CC1 [SMR000310923]
> 50 µM	O=C(Cn1c(-c2ccccc2)c[n+]2ccsc12)c1ccc(Br)cc1 [SMR000354292]
> 12.5 µM	Clc1ccc(-c2c[n+](Cc3ccc(Cl)cc3Cl)c3n2CCCCC3)cc1 [SMR000420192]
> 50 µM	COc1ccc(Nc2nc(N3CCOCC3)nc(N3CCOCC3)n2)c(OC)c1 [SMR000515822]
> 50 µM	CCOc1ccc(-c2nc(CSCC(=O)NC3CC3)c(C)o2)cc1 [SMR000635235]
> 50 µM	CCOc1ccc(-c2nc(CSCC(=O)NCC3CCCO3)c(C)o2)cc1 (configuration not stated) [SMR000635237]
> 50 µM	Cc1ccc(C)c(-c2csc(NC(=O)C3=COCCO3)n2)c1 [SMR000713303]
> 50 µM	CCCc1nc(SCC(=O)Nc2nnc(CC)s2)c2c(=O)n(C)c(=O)n(C)c2n1 [SMR000806028]
> 50 µM	COc1cc(C(=O)NC2CCN(C)CC2)ccc1Nc1ncc2c(n1)N(C1CCCCC1)CCC(=O)N2C [SMR001307858]
> 50 µM	O=C(CCCCCCC(=O)Nc1ccccc1)NO [Zolinza]
> 50 µM	O=C(COC(=O)c1ccc2[nH]c3c(c2c1)CCCC3)Nc1ccccc1Cl [[2-[(2-chlorophenyl)amino]-2-oxidanylidene-ethyl] 6,7,8,9-tetrahydro-5H-carbazole-3-carboxylate]
> 50 µM	CCOc1ccc2[nH]c3c(N4CCN(C(=O)c5ccco5)CC4)ncnc3c2c1 [[4-(8-ethoxy-5H-pyrimido[5,4-b]indol-4-yl)-1-piperazinyl]-(2-furanyl)methanone]
> 50 µM	Cc1ccc(S(=O)(=O)N2CCN(C(=O)c3ccc(S(=O)(=O)N4CCCC4)cc3)CC2)cc1 [[4-(Pyrrolidine-1-sulfonyl)-phenyl]-[4-(toluene-4-sulfonyl)-piperazin-1-yl]-methanone]

SMILES	IC50
CCCCCCCOc1ccc(OC(=O)c2cccnc2)cc1 [(4-heptoxyphenyl) pyridine-3-carboxylate]	> 12.5 µM
CCCCCCCOc1ccc(OC(=O)c2ccncc2)cc1 [(4-heptoxyphenyl) pyridine-4-carboxylate]	> 12.5 µM
CCOP(=O)(CCP(=O)(OCC)OCC)OCC [MLS002702923]	11.8 µM
COc1cc2c(c(OC)c1OC)-c1ccc(N(C)CC(OC)OC)c(=O)cc1[C@@H](NC(C)=O)CC2 [SMR000540275]	> 50 µM
Brc1ccc(-[n+]2c(-c3ccccc3)cc(-c3ccccc3)cc2-c2ccccc2)cc1 [SMR000841262]	15.6 µM
